# Laboratory results: patent publication US11028064B2, “Tricyclic heterocyclic derivatives and uses thereof” (AUCKLAND UNISERVICES LIMITED, priority 2016, dated 2021)
# pIC50: −log10 of the molar value.
# Molecular target: CSF-1R (FMS) (Homo sapiens (Human), UniProt P07333)
# Assay: SelectScreen Z'-LYTE kinase assay, Assay 336 for CSF-1R (FMS)
# Assay type: biochemical
# Settings: Z'-LYTE activity assay, 500 μM ATP (Km app); read-out: CSF-1R Enzyme IC50
# CSF-1R (FMS), sequence (P07333 20-972): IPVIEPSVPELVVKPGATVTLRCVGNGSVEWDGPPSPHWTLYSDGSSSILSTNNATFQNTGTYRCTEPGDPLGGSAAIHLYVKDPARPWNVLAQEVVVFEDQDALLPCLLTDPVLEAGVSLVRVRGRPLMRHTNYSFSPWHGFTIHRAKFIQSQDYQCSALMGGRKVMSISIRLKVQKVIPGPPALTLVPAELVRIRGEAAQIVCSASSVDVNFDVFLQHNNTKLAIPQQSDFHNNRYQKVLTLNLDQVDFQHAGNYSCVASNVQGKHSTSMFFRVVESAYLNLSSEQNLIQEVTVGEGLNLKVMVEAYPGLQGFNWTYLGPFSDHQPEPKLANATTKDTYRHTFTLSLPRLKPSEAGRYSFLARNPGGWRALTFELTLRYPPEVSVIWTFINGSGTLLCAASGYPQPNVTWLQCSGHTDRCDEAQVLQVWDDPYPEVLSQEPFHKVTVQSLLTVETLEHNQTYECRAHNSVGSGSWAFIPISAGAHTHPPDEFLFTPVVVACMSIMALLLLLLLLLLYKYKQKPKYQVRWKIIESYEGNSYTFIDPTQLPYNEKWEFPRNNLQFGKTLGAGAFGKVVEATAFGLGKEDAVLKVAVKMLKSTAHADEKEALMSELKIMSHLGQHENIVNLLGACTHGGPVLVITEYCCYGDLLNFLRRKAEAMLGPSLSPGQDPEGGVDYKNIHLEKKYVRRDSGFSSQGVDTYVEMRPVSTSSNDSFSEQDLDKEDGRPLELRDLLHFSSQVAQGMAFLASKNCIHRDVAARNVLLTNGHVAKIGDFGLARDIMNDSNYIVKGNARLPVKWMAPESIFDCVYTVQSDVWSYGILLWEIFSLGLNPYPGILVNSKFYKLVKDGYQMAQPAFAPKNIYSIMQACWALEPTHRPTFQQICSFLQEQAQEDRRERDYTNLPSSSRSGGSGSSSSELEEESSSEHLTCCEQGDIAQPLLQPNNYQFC
row,pIC50,Structure (SMILES)
1,> 7.00,"CCN1CCN(CCCOc2cc(C)cc3c(=O)c4ccc(Oc5ccc(CCC(=O)NC6CCCC6)nc5)cc4oc23)CC1 [Example 65, N-Cyclopentyl-3-(5-((5-(3-(4-ethylpiperazin-1-yl)propoxy)-7-methyl-9-oxo-9H-xanthen-3-yl)oxy)pyridin-2-yl)propanamide]"
2,> 7.00,"Cc1cc(OCCN(C)C)c2oc3cc(Oc4ccc(CCC(=O)N5CCN(C)CC5)nc4)ccc3c(=O)c2c1 [Example 54, 4-(2-(Dimethylamino)ethoxy)-2-methyl-6-((6-(3-(4-methylpiperazin-1-yl)-3-oxopropyl)pyridin-3-yl)oxy)-9H-xanthen-9-one]"
3,6.00 to 7.00,"Cc1cc(OCCN(C)C)c2sc3cc(Oc4ccccc4)ccc3c(=O)c2c1 [Example 48, 4-(2-(Dimethylamino)ethoxy)-2-methyl-6-phenoxy-9H-thioxanthen-9-one]"
4,6.00 to 7.00,"COc1ccc(CCc2ccc(Oc3ccc4c(=O)c5cc(Cl)cc(OCCN(C)C)c5oc4c3)cn2)cc1 [Example 41, 2-Chloro-4-[2-(dimethylamino)ethoxy]-6-({6-[2-(4-methoxyphenyl)ethyl]-3-pyridinyl}oxy)-9H-xanthen-9-one]"
5,> 7.00,"Cc1cc(OCCCN2C[C@@H](C)N(C)[C@@H](C)C2)c2oc3cc(Oc4ccc(CCC(=O)NC5CCCC5)nc4)ccc3c(=O)c2c1 [Example 68, N-Cyclopentyl-3-(5-((7-methyl-9-oxo-5-(3-((3S,5R)-3,4,5-trimethylpiperazin-1-yl)propoxy)-9H-xanthen-3-yl)oxy)pyridin-2-yl)propanamide]"
6,> 7.00,"CN(C)CCOc1cc(Cl)cc2c(=O)c3ccc(Oc4cccc(C(=O)Nc5ccccc5)c4)cc3oc12 [Example 40, 3-({7-Chloro-5-[2-(dimethylamino)ethoxy]-9-oxo-9H-xanthen-3-yl}oxy)-N-phenylbenzamide]"
7,> 7.00,"Cc1cc(OC[C@H]2CCCN2C)c2oc3cc(Oc4ccc(CCC(=O)NC5CCCC5)nc4)ccc3c(=O)c2c1 [Example 72, (R)—N-Cyclopentyl-3-(5-((7-methyl-5-((1-methylpyrrolidin-2-yl)methoxy)-9-oxo-9H-xanthen-3-yl)oxy)pyridin-2-yl)propanamide]"
8,> 7.00,"Cc1cc(OCCN(C)C)c2oc3cc(Oc4ccc(CCC(=O)Nc5cccnc5)nc4)ccc3c(=O)c2c1 [Example 21, 3-(5-((5-(2-(Dimethylamino)ethoxy)-7-methyl-9-oxo-9H-xanthen-3-yl)oxy)pyridin-2-yl)-N-(pyridin-3-yl)propanamide]"
9,> 7.00,"Cc1cc(OCCCN2CCOCC2)c2oc3cc(Oc4ccc(CCC(=O)NC5CCCC5)nc4)ccc3c(=O)c2c1 [Example 69, N-Cyclopentyl-3-[5-({7-methyl-5-[3-(4-morpholinyl)propoxy]-9-oxo-9H-xanthen-3-yl}oxy)-2-pyridinyl]propanamide]"
10,> 7.00,"Cc1cc(OCCC2CCCN2C)c2oc3cc(Oc4ccc(CCC(=O)NC5CCCC5)nc4)ccc3c(=O)c2c1 (stereo not shown) [Example 75, N-Cyclopentyl-3-(5-((7-methyl-5-(2-(1-methylpyrrolidin-2-yl)ethoxy)-9-oxo-9H-xanthen-3-yl)oxy)pyridin-2-yl)propanamide]"
11,> 7.00,"COc1ccc(CNc2ccc(Oc3ccc4c(=O)c5cc(C)cc(OCCN(C)C)c5oc4c3)cn2)cc1 [Example 14, 4-(2-(Dimethylamino)ethoxy)-6-((6-((4-methoxybenzyl)amino)pyridin-3-yl)oxy)-2-methyl-9H-xanthen-9-one]"
12,5.00 to 6.00,"Cc1ccc2c(c1)c(=O)c1ccc(Sc3ccccc3)cc1n2CCCN(C)C [Example 52, 10-(3-(Dimethylamino)propyl)-2-methyl-6-(phenylthio)acridin-9(10H)-one]"
13,> 7.00,"COc1ccc(CNc2ccc(Oc3ccc4c(=O)c5cc(C)cc(OCCN(C)C)c5oc4c3)cn2)cn1 [Example 16, 4-(2-(Dimethylamino)ethoxy)-6-((6-(((6-methoxypyridin-3-yl)methyl)amino)pyridin-3-yl)oxy)-2-methyl-9H-xanthen-9-one]"
14,> 7.00,"Cc1cc(OC2CCN(C)C2)c2oc3cc(Oc4ccc(CCC(=O)NC5CCCC5)nc4)ccc3c(=O)c2c1 (stereo not shown) [Example 70, N-Cyclopentyl-3-(5-((7-methyl-5-((1-methylpyrrolidin-3-yl)oxy)-9-oxo-9H-xanthen-3-yl)oxy)pyridin-2-yl)propanamide]"
15,> 7.00,"COc1ccc(COc2ncc(Oc3ccc4c(=O)c5cc(C)cc(OCCN(C)C)c5oc4c3)cc2OC)cc1 [Example 12, 4-(2-(Dimethylamino)ethoxy)-6-((5-methoxy-6-((4-methoxybenzyl)oxy)pyridin-3-yl)oxy)-2-methyl-9H-xanthen-9-one]"
16,> 7.00,"Cc1cc(OCC2CCCCN2C)c2oc3cc(Oc4ccc(CCC(=O)NC5CCCC5)nc4)ccc3c(=O)c2c1 (stereo not shown) [Example 74, N-Cyclopentyl-3-(5-((7-methyl-5-((1-methylpiperidin-2-yl)methoxy)-9-oxo-9H-xanthen-3-yl)oxy)pyridin-2-yl)propanamide]"
17,5.00 to 6.00,"CN(C)CCOc1cc(Cl)cc2c(=O)c3ccc(Oc4ccccc4)cc3oc12 [Example 39, 2-Chloro-4-[2-(dimethylamino)ethoxy]-6-phenoxy-9H-xanthen-9-one]"
18,6.00 to 7.00,"COc1ccc(CCc2ccc(Oc3ccc4c(=O)c5cccc(OCCN(C)C)c5oc4c3)cn2)cc1 [Example 3, 5-[2-(Dimethylamino)ethoxy]-3-({6-[2-(4-methoxyphenyl)ethyl]-3-pyridinyl}oxy)-9H-xanthen-9-one]"
19,> 7.00,"Cc1cc(OC[C@@H]2CCCN2C)c2oc3cc(Oc4ccc(CCC(=O)NC5CCCC5)nc4)ccc3c(=O)c2c1 [Example 73, (S)—N-Cyclopentyl-3-(5-((7-methyl-5-((1-methylpyrrolidin-2-yl)methoxy)-9-oxo-9H-xanthen-3-yl)oxy)pyridin-2-yl)propanamide]"
20,> 7.00,"COc1ccc(CCc2ccc(Oc3ccc4c(=O)c5cc(C)cc(OCCN(C)C)c5sc4c3)cn2)cc1 [Example 50, 4-(2-(Dimethylamino)ethoxy)-6-((6-(4-methoxyphenethyl)pyridin-3-yl)oxy)-2-methyl-9H-thioxanthen-9-one]"

# The remaining lines, values behind:
row,Structure (SMILES),pIC50
1,"Cc1cc(OCCN2C[C@@H](C)N[C@@H](C)C2)c2oc3cc(Oc4ccc(CCC(=O)NC5CCCC5)nc4)ccc3c(=O)c2c1 [Example 61, N-Cyclopentyl-3-(5-((5-(2-((3S,5R)-3,5-dimethylpiperazin-1-yl)ethoxy)-7-methyl-9-oxo-9H-xanthen-3-yl)oxy)pyridin-2-yl)propanamide]",> 7.00
2,"CN(C)CCOc1ccc2c(=O)c3ccc(Oc4ccc(CCC(=O)NC5CCCC5)nc4)cc3oc2c1 [Example 47, N-Cyclopentyl-3-(5-((6-(2-(dimethylamino)ethoxy)-9-oxo-9H-xanthen-3-yl)oxy)pyridine-2-yl)propanamide]",> 7.00
3,"Cc1cc(OCCN(C)C)c2oc3cc(Oc4ccc(OCc5ccc(C(F)(F)F)nc5)nc4)ccc3c(=O)c2c1 [Example 13, 4-(2-(Dimethylamino)ethoxy)-2-methyl-6-((6-((6-(trifluoromethyl)pyridin-3-yl)meth-oxy)pyridin-3-yl)oxy)-9H-xanthen-9-one]",> 7.00
4,"COc1cc(OCCN(C)C)cc2c(=O)c3ccc(Oc4ccc(CCC(=O)NC5CCCC5)nc4)cc3oc12 [Example 46, N-Cyclopentyl-3-(5-((7-(2-(dimethylamino)ethoxy)-5-methoxy-9-oxo-9H-xanthen-3-yl)oxy)pyridin-2-yl)propanamide]",> 7.00
5,"Cc1cc(OCCN)c2oc3cc(Oc4ccc(CCC(=O)NC5CCCC5)nc4)ccc3c(=O)c2c1 [Example 28, 3-(5-((5-(2-Aminoethoxy)-7-methyl-9-oxo-9H-xanthen-3-yl)oxy)pyridin-2-yl)-N-cyclopentylpropanamide]",> 7.00
6,"Cc1cc(OCCN(C)C)c2oc3cc(Oc4ccc(CCNC(=O)N5CCCC5)nc4)ccc3c(=O)c2c1 [Example 27, N-(2-(5-((5-(2-(Dimethylamino)ethoxy)-7-methyl-9-oxo-9H-xanthen-3-yl)oxy)pyridin-2-yl)ethyl)pyrrolidine-1-carboxamide]",> 7.00
7,"Cc1cc(OCCN(C)C)c2oc3cc(Oc4ccc(CCC(=O)N5CCOCC5)nc4)ccc3c(=O)c2c1 [Example 24, 4-(2-(Dimethylamino)ethoxy)-2-methyl-6-((6-(3-morpholino-3-oxopropyl)pyridin-3-yl)oxy)-9H-xanthen-9-one]",> 7.00
8,"Cc1cc(OC2CCCN(C)C2)c2oc3cc(Oc4ccc(CCC(=O)NC5CCCC5)nc4)ccc3c(=O)c2c1 (stereo not shown) [Example 60, N-Cyclopentyl-3-(5-((7-methyl-5-((1-methylpiperidin-3-yl)oxy)-9-oxo-9H-xanthen-3-yl)oxy)pyridin-2-yl)propanamide]",> 7.00
9,"CCN(CC)CCOc1cc(C)cc2c(=O)c3ccc(Oc4ccc(CCC(=O)NC5CCCC5)nc4)cc3oc12 [Example 55, N-Cyclopentyl-3-(5-((5-(2-(diethylamino)ethoxy)-7-methyl-9-oxo-9H-xanthen-3-yl)oxy)pyridin-2-yl)propanamide]",> 7.00
10,COc1ccc(COc2ccc(Oc3ccc4c(=O)c5cc(C)cc(OCCN(C)C)c5oc4c3)cc2OC)cc1 [Example 7],> 7.00
11,"Cc1cc(OCCN2CCCCC2)c2oc3cc(Oc4ccc(CCC(=O)NC5CCCC5)nc4)ccc3c(=O)c2c1 [Example 38, N-Cyclopentyl-3-(5-((7-methyl-9-oxo-5-(2-(piperidin-1-yl)ethoxy)-9H-xanthen-3-yl)oxy)pyridin-2-yl)propanamide]",> 7.00
12,"Cc1cc(OCC2CCCN(C)C2)c2oc3cc(Oc4ccc(CCC(=O)NC5CCCC5)nc4)ccc3c(=O)c2c1 (stereo not shown) [Example 76, N-Cyclopentyl-3-(5-((7-methyl-5-((1-methylpiperidin-3-yl)methoxy)-9-oxo-9H-xanthen-3-yl)oxy)pyridin-2-yl)propanamide]",> 7.00
13,"Cc1cc(OCCN(C)C)c2sc3cc(Oc4ccc(CCC(=O)NC5CCCC5)nc4)ccc3c(=O)c2c1 [Example 51, N-Cyclopentyl-3-(5-((5-(2-(dimethylamino)ethoxy)-7-methyl-9-oxo-9H-thioxanthen-3-yl)oxy)pyridin-2-yl)propanamide]",> 7.00
14,"Cc1cc(OCCCN(C)C)c2oc3cc(Oc4ccc(CCC(=O)NC5CCCC5)nc4)ccc3c(=O)c2c1 [Example 63, N-Cyclopentyl-3-(5-((5-(3-(dimethylamino)propoxy)-7-methyl-9-oxo-9H-xanthen-3-yl)oxy)pyridin-2-yl)propanamide]",> 7.00
